Assay results: patent US7741337B2, “Azonafide derivatives, methods for their production and pharmaceutical compositions therefrom” (Unibioscreen S.A., priority 2005, dated 2010)
Structures can show the parent of a compound that is named as a salt.

Assays:
[1] = tested on: human cancer cell lines Hs683, U-373MG, HCT-15, LoVo, A549 and MCF-7; experiment: MTT test, effect on overall cell growth (mean of six cell lines, examples 3 to 26); assay type: cell-based; conditions: mean of six cell lines Hs683, U-373MG, A549, MCF-7, 72 hours incubation, range of molar concentrations resulting in 50% inhibition of overall tumor cells growth
Protocol: (§1) MTT tests were performed in order to rapidly, i.e. within 5 days, measure the effect of azonafide derivatives of this invention on the overall cell growth. The test measures the number of metabolically active living cells that are able to transform the yellow product 3-(4,5-dimethylthiazol-2-yl)-2,5-diphenyl tetrazolium bromide (herein referred as MTT) into the blue product formazan dye by mitochondrial reduction. The amount of formazan obtained at the end of the experiment, measured by means of a spectrophotometer, is directly proportional to the number of living cells. Optical density determination thus enables a quantitative measurement of the effect of the investigated compounds as compared to the control condition (untreated cells) and/or to other reference compounds.
(§2) Height human cancer cell lines described in table 1 were used in the following MTT tests. These cell lines cover six histological cancer types, being prostate, glioma, pancreas, colon, lung and breast cancers. Cells were allowed to grow in 96-well micro-wells with a flat bottom with an amount of 100 μl of cell suspension per well with 1,000 to 4,000 cells/well depending on the cell type used. Each cell line was seeded in a well known MEM 5% serum culture medium.
(§3) The detailed experimental procedure was as following: after a 24-hour period of incubation at 37° C., the culture medium was replaced by 100 μl of fresh medium in which the compound to be tested was dissolved at the following molar concentrations: 10^−9 M, 5.10^−9 M, 10^−8 M, 5.10^−8 M, 10^−7 M, 5.10^−7 M, 10^−6 M, 5.10^−6 M and 10^−5 M. Each experiment was repeated 6 times.
(§4) After 72 hours of incubation at 37° C. with (experimental conditions) or without (control condition) the compound to be tested, the medium was replaced by 100 μl MTT dissolved in RPMI at a concentration of 1 mg/ml. The micro-wells were subsequently incubated during 3 hours at 37° C. and centrifuged at 400 g during 10 minutes. MTT was removed and formazan crystals formed were dissolved in 100 μl DMSO. The micro-wells were shaken for 5 minutes and read on a spectrophotometer at wavelengths of 570 nm (maximum formazan absorbance) and 630 nm (back-ground noise).
(§5) For each experimental condition, the mean optical density was calculated, as well as the percentage of remaining living cells in comparison with the control.
(§6) IC50 values for compounds of examples 3 to 26 were obtained on cell lines Hs683, U-373MG, HCT-15, LoVo, A549 and MCF-7 described in Table 1. IC50 values for compounds from examples 27 to 45 were obtained on cell lines PC3, U-373MG, BxPC3, LoVo, A549 and MCF-7 described in Table 1.

A549 (Lung cancer) cells = experiment: Effect on cell migration, A549; assay type: cell-based; conditions: Homo sapiens, 22 hours on the 25% of most motile cells, p value in same cell, read-out: Maximum effects (cell migration)
Protocol: (§7) Cells of different cancer lines, i.e. U-373 MG (Glioma cancer), PC3 (prostate cancer and A549 (Lung cancer) were seeded on culture flask 48 hours before the migration experiment. On the test day, cells were treated with or without the azonafide derivatives mentioned in table 3 in closed Falcon dishes containing a buffered medium at a controlled temperature (37.0±0.1° C.) for 12 or 22 hours, as noted in the right column of table 3. The azonafide derivatives were used at three non-cytotoxic concentrations (10^−6 M, 10^−7, 10^−8 M). Migration of the cells was observed by means of a CCD-camera mounted on a phase-contrast microscope. Statistical analysis of the migration, with the non-parametric Mann-Whitney test, was established for 25% and 50% of the most motile cells and for the entire cell population.

[2] = tested on: U-373 MG, PC-3 and/or A549 cancer cells; experiment: Effect on cell migration, summary of table 3; assay type: cell-based, human; conditions: for migration level of cancer cells: U-373 MG, PC-3 and/or A549 cancer cells at the non-cytotoxic concentrations of this study
Protocol: as §7

[3] = tested on: human cancer cell lines PC3, U-373MG, BxPC3, LoVo, A549 and MCF-7; experiment: MTT test, effect on overall cell growth (mean of six cell lines, examples 27 to 45); assay type: cell-based; conditions: mean of six cell lines PC3, U-373MG, A549, MCF-7, 72 hours incubation, range of molar concentrations resulting in 50% inhibition of overall tumor cells growth
Protocol: as §1, §2, §3, §4, §5, §6

Structure (SMILES) | IC50 [1] [µM] | IC50 [3] [µM] | also measured
CN(C)CCN1C(=O)c2cccc3cc4c(N)cccc4c(c23)C1=O [Example 4, 8-amino-2-[2-(dimethylamino)ethyl]-1H-dibenzo[de,h]isoquinoline-1,3(2H)-dione, reference compound] | 1 to 5 |  | 
CN(C)CCN1C(=O)c2cccc3cc4cccc(NC(=O)CCCCl)c4c(c23)C1=O [Example 10, 4-chloro-N-{2-[2-(dimethylamino)ethyl]-1,3-dioxo-2,3-dihydro-1H-dibenzo[de,h]isoquinolin-11-yl}butanamide] | 1 to 5 |  | Emax at 1 µM (A549 (Lung cancer) cells; at 10^−6 M): -24%; migration level of cancer cells [2]: induced a decrease in the migration level
CN(C)CCN1C(=O)c2cccc3cc4c(NC(=O)NC(=O)c5ccccc5)cccc4c(c23)C1=O [Example 16, N-({2-[2-(dimethylamino)ethyl]-1,3-dioxo-2,3-dihydro-1H-dibenzo[de,h]isoquinolin-8-yl}carbamoyl)benzamide hydrochloride] | 1 to 5 |  | 
CN(C)CCN1C(=O)c2cccc3cc4cccc(NC(=O)Oc5ccccc5)c4c(c23)C1=O [Example 18, phenyl {2-[2-(dimethylamino)ethyl]-1,3-dioxo-2,3-dihydro-1H-dibenzo[de,h]isoquinolin-11-yl}carbamate] | > 10 |  | 
CCCCCCCCCC(=O)CC(=O)Nc1cccc2cc3cccc4c3c(c12)C(=O)N(CCN(C)C)C4=O [Example 20, N-{2-[2-(dimethylamino)ethyl]-1,3-dioxo-2,3-dihydro-1H-dibenzo[de,h]isoquinolin-11-yl}-3-oxododecanamide] | > 10 |  | 
CN(C)CCN1C(=O)c2cccc3cc4cccc(NC(=O)CC(=O)CCc5ccccc5)c4c(c23)C1=O [Example 22, N-{2-[2-(dimethylamino)ethyl]-1,3-dioxo-2,3-dihydro-1H-dibenzo[de,h]isoquinolin-11-yl}-3-oxo-5-phenylpentanamide] | > 10 |  | 
CCOC(=O)CCC(=O)CC(=O)Nc1cccc2cc3cccc4c3c(c12)C(=O)N(CCN(C)C)C4=O [Example 23, ethyl 6-({2-[2-(dimethylamino)ethyl]-1,3-dioxo-2,3-dihydro-1H-dibenzo[de,h]isoquinolin-11-yl}amino)-4,6-dioxohexanoate] | > 10 |  | 
C=CCOC(=O)Nc1cccc2cc3cccc4c3c(c12)C(=O)N(CCN(C)C)C4=O [Example 26, allyl {2-[2-(dimethylamino)ethyl]-1,3-dioxo-2,3-dihydro-1H-dibenzo[de,h]isoquinolin-11-yl}carbamate] |  |  | Emax at 0.01 µM (A549 (Lung cancer) cells; at 10^−8 M): -29%; migration level of cancer cells [2]: induced a decrease in the migration level; cell migration activity compared with the closest compounds known in the art ([2]; comparison drawn from table 3): significantly greater cell migration activity than the closest compounds known in the art, or similar cell migration activity at significantly lower concentrations
CN(C)CCN1C(=O)c2cccc3cc4cccc(NC(=O)OCCCCCl)c4c(c23)C1=O [Example 28, 4-chlorobutyl {2-[2-(dimethylamino)ethyl]-1,3-dioxo-2,3-dihydro-1H-dibenzo[de,h]isoquinolin-11-yl}carbamate] |  | > 10 | 
CN(C)CCN1C(=O)c2cccc3cc4cccc(NC(=S)Nc5ccc(Br)cc5)c4c(c23)C1=O [Example 30, 1-{2-[2-(dimethylamino)ethyl]-1,3-dioxo-2,3-dihydro-1H-dibenzo[de,h]isoquinolin-11-yl}-3-[4-bromophenyl]thiourea] |  | > 10 | 
COCCNC(=S)Nc1cccc2cc3cccc4c3c(c12)C(=O)N(CCN(C)C)C4=O [Example 32, 1-{2-[2-(dimethylamino)ethyl]-1,3-dioxo-2,3-dihydro-1H-dibenzo[de,h]isoquinolin-11-yl}-3-[2-methoxyethyl]thiourea] |  | 5 to 10 | 
CC(C)c1ccc(NC(=S)Nc2cccc3cc4cccc5c4c(c23)C(=O)N(CCN(C)C)C5=O)cc1 [Example 33, 1-{2-[2-(dimethylamino)ethyl]-1,3-dioxo-2,3-dihydro-1H-dibenzo[de,h]isoquinolin-11-yl}-3-[4-isopropylphenyl]thiourea] |  | > 10 | 
COc1ccc(NC(=S)Nc2cccc3cc4cccc5c4c(c23)C(=O)N(CCN(C)C)C5=O)cc1 [Example 34, 1-{2-[2-(dimethylamino)ethyl]-1,3-dioxo-2,3-dihydro-1H-dibenzo[de,h]isoquinolin-11-yl}-3-[4-methoxyphenyl]thiourea] |  | > 10 | 
CCNC(=S)Nc1cccc2cc3cccc4c3c(c12)C(=O)N(CCN(C)C)C4=O [Example 35, 1-{2-[2-(dimethylamino)ethyl]-1,3-dioxo-2,3-dihydro-1H-dibenzo[de,h]isoquinolin-11-yl}-3-[ethyl]thiourea] |  | > 10 | 
C=CCNC(=S)Nc1cccc2cc3cccc4c3c(c12)C(=O)N(CCN(C)C)C4=O [Example 36, 1-{2-[2-(dimethylamino)ethyl]-1,3-dioxo-2,3-dihydro-1H-dibenzo[de,h]isoquinolin-11-yl}-3-[allyl]thiourea] |  | > 10 | 
COc1ccccc1NC(=S)Nc1cccc2cc3cccc4c3c(c12)C(=O)N(CCN(C)C)C4=O [Example 37, 1-{2-[2-(dimethylamino)ethyl]-1,3-dioxo-2,3-dihydro-1H-dibenzo[de,h]isoquinolin-11-yl}-3-[2-methoxyphenyl]thiourea] |  | > 10 | 
CN(C)CCN1C(=O)c2cccc3cc4cccc(NC(=S)Nc5cccnc5)c4c(c23)C1=O [Example 38, 1-{2-[2-(dimethylamino)ethyl]-1,3-dioxo-2,3-dihydro-1H-dibenzo[de,h]isoquinolin-11-yl}-3-[3-pyridyl]thiourea] |  | > 10 | 
CN(C)CCN1C(=O)c2cccc3cc4cccc(NC(=S)Nc5ccc(Br)cc5OC(F)(F)F)c4c(c23)C1=O [Example 39, 1-{2-[2-(dimethylamino)ethyl]-1,3-dioxo-2,3-dihydro-1H-dibenzo[de,h]isoquinolin-11-yl}-3-[2-trifluoromethoxy4-bromophenyl]thiourea] |  | > 10 | 
CN(C)CCN1C(=O)c2cccc3cc4cccc(NC(=S)NCc5ccco5)c4c(c23)C1=O [Example 40, 1-{2-[2-(dimethylamino)ethyl]-1,3-dioxo-2,3-dihydro-1H-dibenzo[de,h]isoquinolin-11-yl}-3-[2-furylmethyl]thiourea] |  | 1 to 5 | 
CN(C)CCN1C(=O)c2cccc3cc4cccc(NC(=S)Nc5ccc(C(F)(F)F)cc5)c4c(c23)C1=O [Example 41, 1-{2-[2-(dimethylamino)ethyl]-1,3-dioxo-2,3-dihydro-1H-dibenzo[de,h]isoquinolin-11-yl}-3-[4-trifluoromethylphenyl]thiourea] |  | 1 to 5 | 
CN(C)CCN1C(=O)c2cccc3cc4cccc(NC(=S)Nc5ccc6nsnc6c5)c4c(c23)C1=O [Example 43, 1-(2,1,3-Benzothiadiazol-5-yl)-3-{2-[2-(dimethylamino)ethyl]-1,3-dioxo-2,3-dihydro-1H-dibenzo[de,h]isoquinolin-11-yl}thiourea] |  | 1 to 5 | 
CN(C)CCN1C(=O)c2cccc3cc4cccc(NC(=S)Nc5ccccc5OC(F)(F)F)c4c(c23)C1=O [Example 45, 1-{2-[2-(dimethylamino)ethyl]-1,3-dioxo-2,3-dihydro-1H-dibenzo[de,h]isoquinolin-11-yl}-3-[2-(trifluoromethoxy)phenyl]thiourea] |  | > 10 | 
